# Reference: US20230123334A1, “AMINO LIPID COMPOUND, PREPARATION METHOD THEREFOR, AND APPLICATION THEREOF” (SHENZHEN SHENXIN BIOTECHNOLOGY CO., LTD., priority 2020, published 2023)
# Test system: HEK293 cells
# Assay: Preliminary screening as DNA vectors, GFP transfection of HEK293 cells
# Format: cell-based
# Details: amino lipid/DOPE liposome with 75 ng plasmid DNA (psin-EGFP-IRES-Puro); number of GFP-expressing cells divided by total nuclei (Hoechst)
# How it was run: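 HEK293 cells in DMEM/10% FBS transfected with 75 ng EGFP plasmid per well complexed with amino lipid/DOPE liposomes in pH 5.6 sodium acetate. Hoechst nuclear stain added 20-24 h post-transfection, then cells cultured another 20-24 h. Confocal imaging gives GFP-positive cells as % of total nuclei.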
row,Structure (SMILES),Absolute DNA transfection efficiency in HEK293 cells [%]
1,CCCCCCCCCCCCCCSc1nc(NCCCCCC)nc(NCCN(CC)CC)n1 [S14N6 D7],20.3
2,CCCCCCCCCCCCCCSc1nc(NCCCCCC)nc(NCCCN2CCOCC2)n1 [S14N6 D8],13.6
3,CCCCCCCCCCCCCCSc1nc(NCCCCCC)nc(NCCCN2CCN(C)CC2)n1 [S14N6 D9],17.4
4,CCCCCCCCCCCCCCSc1nc(NCCCCCC)nc(NCC2CCN(C)CC2)n1 [S14N6 D10],39.0
5,CCCCCCCCCCCCCCSc1nc(NCCCCCCC)nc(NCCN(C)C)n1 [S14N7 D1],12.5
6,CCCCCCCCCCCCCCSc1nc(NCCCCCCC)nc(NCCN2CCOCC2)n1 [S14N7 D2],18.7
7,CCCCCCCCCCCCCCSc1nc(NCCCCCCC)nc(NCCN2CCCC2)n1 [S14N7 D3],14.4
8,CCCCCCCCCCCCCCSc1nc(NCCCCCCC)nc(NCCN2CCCCC2)n1 [S14N7 D4],3.7
9,CCCCCCCCCCCCCCSc1nc(NCCCCCCC)nc(NCCN2CCN(C)CC2)n1 [S14N7 D5],16.3
10,CCCCCCCCCCCCCCSc1nc(NCCCCCCC)nc(NCCCN(C)C)n1 [S14N7 D6],25.0
11,CCCCCCCCCCCCCCSc1nc(NCCCCCCC)nc(NCCN(CC)CC)n1 [S14N7 D7],10.5
12,CCCCCCCCCCCCCCSc1nc(NCCCCCCC)nc(NCCCN2CCOCC2)n1 [S14N7 D8],13.3
13,CCCCCCCCCCCCCCSc1nc(NCCCCCCC)nc(NCCCN2CCN(C)CC2)n1 [S14N7 D9],16.1
14,CCCCCCCCCCCCCCSc1nc(NCCCCCCC)nc(NCC2CCN(C)CC2)n1 [S14N7 D10],34.6
15,CCCCCCCCCCCCCCSc1nc(NCCCCCCCC)nc(NCCN(C)C)n1 [S14N8 D1],8.9
16,CCCCCCCCCCCCCCSc1nc(NCCCCCCCC)nc(NCCN2CCOCC2)n1 [S14N8 D2],12.9
17,CCCCCCCCCCCCCCSc1nc(NCCCCCCCC)nc(NCCN2CCCC2)n1 [S14N8 D3],24.4
18,CCCCCCCCCCCCCCSc1nc(NCCCCCCCC)nc(NCCN2CCCCC2)n1 [S14N8 D4],2.6
19,CCCCCCCCCCCCCCSc1nc(NCCCCCCCC)nc(NCCN2CCN(C)CC2)n1 [S14N8 D5],19.6
20,CCCCCCCCCCCCCCSc1nc(NCCCCCCCC)nc(NCCCN(C)C)n1 [S14N8 D6],33.4
21,CCCCCCCCCCCCCCSc1nc(NCCCCCCCC)nc(NCCN(CC)CC)n1 [S14N8 D7],1.6
22,CCCCCCCCCCCCCCSc1nc(NCCCCCCCC)nc(NCCCN2CCOCC2)n1 [S14N8 D8],9.8

row,Structure (SMILES),Absolute DNA transfection efficiency in HEK293 cells [%]
1,CCCCCCCCCCCCCCSc1nc(NCCCCCCCC)nc(NCCCN2CCN(C)CC2)n1 [S14N8 D9],15.7
2,CCCCCCCCCCCCCCSc1nc(NCCCCCCCC)nc(NCC2CCN(C)CC2)n1 [S14N8 D10],26.2
3,CCCCCCCCCCCCCCSc1nc(NCCCCCCCCC)nc(NCCN(C)C)n1 [S14N9 D1],20.8
4,CCCCCCCCCCCCCCSc1nc(NCCCCCCCCC)nc(NCCN2CCOCC2)n1 [S14N9 D2],9.7
5,CCCCCCCCCCCCCCSc1nc(NCCCCCCCCC)nc(NCCN2CCCC2)n1 [S14N9 D3],30.7
6,CCCCCCCCCCCCCCSc1nc(NCCCCCCCCC)nc(NCCN2CCCCC2)n1 [S14N9 D4],2.0
7,CCCCCCCCCCCCCCSc1nc(NCCCCCCCCC)nc(NCCN2CCN(C)CC2)n1 [S14N9 D5],16.9
8,CCCCCCCCCCCCCCSc1nc(NCCCCCCCCC)nc(NCCCN(C)C)n1 [S14N9 D6],43.9
9,CCCCCCCCCCCCCCSc1nc(NCCCCCCCCC)nc(NCCN(CC)CC)n1 [S14N9 D7],10.6
10,CCCCCCCCCCCCCCSc1nc(NCCCCCCCCC)nc(NCCCN2CCOCC2)n1 [S14N9 D8],10.7
11,CCCCCCCCCCCCCCSc1nc(NCCCCCCCCC)nc(NCCCN2CCN(C)CC2)n1 [S14N9 D9],16.7
12,CCCCCCCCCCCCCCSc1nc(NCCCCCCCCC)nc(NCC2CCN(C)CC2)n1 [S14N9 D10],17.6
13,CCCCCCCCCCCCCCSc1nc(NCCCCCCCCCCC)nc(NCCN(C)C)n1 [S14N11 D1],11.8
14,CCCCCCCCCCCCCCSc1nc(NCCCCCCCCCCC)nc(NCCN2CCOCC2)n1 [S14N11 D2],12.5
15,CCCCCCCCCCCCCCSc1nc(NCCCCCCCCCCC)nc(NCCN2CCCC2)n1 [S14N11 D3],25.2
16,CCCCCCCCCCCCCCSc1nc(NCCCCCCCCCCC)nc(NCCN2CCCCC2)n1 [S14N11 D4],3.1
17,CCCCCCCCCCCCCCSc1nc(NCCCCCCCCCCC)nc(NCCN2CCN(C)CC2)n1 [S14N11 D5],13.3
18,CCCCCCCCCCCCCCSc1nc(NCCCCCCCCCCC)nc(NCCCN(C)C)n1 [S14N11 D6],17.0
19,CCCCCCCCCCCCCCSc1nc(NCCCCCCCCCCC)nc(NCCN(CC)CC)n1 [S14N11 D7],8.6
20,CCCCCCCCCCCCCCSc1nc(NCCCCCCCCCCC)nc(NCCCN2CCOCC2)n1 [S14N11 D8],2.2
21,CCCCCCCCCCCCCCSc1nc(NCCCCCCCCCCC)nc(NCCCN2CCN(C)CC2)n1 [S14N11 D9],10.2
22,CCCCCCCCCCCCCCSc1nc(NCCCCCCCCCCC)nc(NCC2CCN(C)CC2)n1 [S14N11 D10],9.0

row,Structure (SMILES),Absolute DNA transfection efficiency in HEK293 cells [%]
1,CCCCCCCCCCCCCCSc1nc(NCCCCCCCCCCCC)nc(NCCN(C)C)n1 [S14N12 D1],15.3
2,CCCCCCCCCCCCCCSc1nc(NCCCCCCCCCCCC)nc(NCCN2CCOCC2)n1 [S14N12 D2],1.6
3,CCCCCCCCCCCCCCSc1nc(NCCCCCCCCCCCC)nc(NCCN2CCCC2)n1 [S14N12 D3],21.0
4,CCCCCCCCCCCCCCSc1nc(NCCCCCCCCCCCC)nc(NCCN2CCCCC2)n1 [S14N12 D4],3.8
5,CCCCCCCCCCCCCCSc1nc(NCCCCCCCCCCCC)nc(NCCN2CCN(C)CC2)n1 [S14N12 D5],9.8
6,CCCCCCCCCCCCCCSc1nc(NCCCCCCCCCCCC)nc(NCCCN(C)C)n1 [S14N12 D6],6.3
7,CCCCCCCCCCCCCCSc1nc(NCCCCCCCCCCCC)nc(NCCN(CC)CC)n1 [S14N12 D7],1.1
8,CCCCCCCCCCCCCCSc1nc(NCCCCCCCCCCCC)nc(NCCCN2CCOCC2)n1 [S14N12 D8],2.1
9,CCCCCCCCCCCCCCSc1nc(NCCCCCCCCCCCC)nc(NCCCN2CCN(C)CC2)n1 [S14N12 D9],4.1
10,CCCCCCCCCCCCCCSc1nc(NCCCCCCCCCCCC)nc(NCC2CCN(C)CC2)n1 [S14N12 D10],5.8
11,CCCCCCCCCCCCCCSc1nc(NCCCCCCCCCCCCC)nc(NCCN(C)C)n1 [S14N13 D1],1.1
12,CCCCCCCCCCCCCCSc1nc(NCCCCCCCCCCCCC)nc(NCCN2CCOCC2)n1 [S14N13 D2],0.0
13,CCCCCCCCCCCCCCSc1nc(NCCCCCCCCCCCCC)nc(NCCN2CCCC2)n1 [S14N13 D3],9.1
14,CCCCCCCCCCCCCCSc1nc(NCCCCCCCCCCCCC)nc(NCCN2CCCCC2)n1 [S14N13 D4],3.9
15,CCCCCCCCCCCCCCSc1nc(NCCCCCCCCCCCCC)nc(NCCN2CCN(C)CC2)n1 [S14N13 D5],1.9
16,CCCCCCCCCCCCCCSc1nc(NCCCCCCCCCCCCC)nc(NCCCN(C)C)n1 [S14N13 D6],2.6
17,CCCCCCCCCCCCCCSc1nc(NCCCCCCCCCCCCC)nc(NCCN(CC)CC)n1 [S14N13 D7],2.8
18,CCCCCCCCCCCCCCSc1nc(NCCCCCCCCCCCCC)nc(NCCCN2CCOCC2)n1 [S14N13 D8],0.3
19,CCCCCCCCCCCCCCSc1nc(NCCCCCCCCCCCCC)nc(NCCCN2CCN(C)CC2)n1 [S14N13 D9],1.4
20,CCCCCCCCCCCCCCSc1nc(NCCCCCCCCCCCCC)nc(NCC2CCN(C)CC2)n1 [S14N13 D10],2.2
21,CCCCCCCCCCCCCCCNc1nc(NCCN(C)C)nc(SCCCCCCCCCCCCCC)n1 [S14N15 D1],0.4
